Twelve molecules from US10940188B2, “Compounds and methods for treatment and prevention of Flavivirus infection” (priority 2016, dated 2021) can be followed below.

Like-named read-outs stand apart in the source and are kept apart here.

The test system of assay [1] is ZIKV-induced cell death in hNPCs. Description: ATP cell viability assay for ZIKV-induced cell death, hNPCs. The format is cell-based, human. The settings on record: ZIKV-infected hNPCs. The protocol: (§1) The reagent was reconstituted and prepared as described by the manufacturer. In order to measure the cell death caused by ZIKV infection, cells were cultured for 16 hours at 37° C. with 5% CO2 in assay plates, followed by the addition of ZIKV solution and incubation at 37° C. with 5% CO2 for 72 hours. ATPlite, the ATP monitoring reagent, was then added to the assay plates and they were incubated for 15 minutes. The resulting luminescence was measured using the ViewLux plate reader (Perkin Elmer). Data were normalized using the wells without cells as a control for 100% cell killing, and cell-containing wells without ZIKV infection were used as full cell viability (0% cell killing).
Human NPCs were seeded onto PDL coated 1536-well assay plates at 250 cells per 3 μl/well and incubated at 37° C. in 5% CO2 for 16 hours. Test compounds dissolved in DMSO were transferred to assay plates at a volume of 23 nl/well by an automated pintool workstation (Wako Automation, San Diego, Calif.). Compounds were incubated with cells for 30 minutes at 37° C. in 5% CO2, immediately followed by the addition of 2 μl/well of ZIKV. Incubation time of compound-treated cells with ZIKV varied based on assay format. Experiments measuring virus-induced caspase 3/7 activity required a 6 hour incubation of ZIKV in the presence compounds at 37° C. in 5% CO2. Following this incubation, 3.5 μl/well of caspase 3/7 reagent mixture was added to assay plates. The plates were incubated for 30 minutes at room temperature, and the resultant luminescence signal was measured using a ViewLux plate reader (Perkin Elmer). Experiments measuring virus-induced cell death required a 72-hour incubation of ZIKV in the presence of compounds at 37° C. in 5% CO2. Following this incubation, 3.5 μl/well of ATP content detection reagent was added to assay plates, incubated for 30 minutes at the room temperature, and the resultant luminescence signal was measured in a ViewLux plate reader.
as §1, with “The ATPlite luminescence assay system assay kit (PerkinElmer) was used to determine cell viability. The reagent” for “The reagent”, “by the manufacture. In order” for “by the manufacturer. In order”, “followed by addition of” for “followed by the addition of”, “plates and incubated for” for “plates and they were incubated for”, “Elmer). Data was normalized using” for “Elmer). Data were normalized using”
Human NPCs were seeded onto PDL coated 1536-well assay plates at 250 cells per 3 μl/well and incubated at 37° C. in 5% CO2 for 16 hours. Test compounds dissolved in DMSO were transferred to assay plates at a volume of 23 nl/well by an automated pintool workstation (Wako Automation, San Diego, Calif.). Compounds were incubated with cells for 30 minutes at 37° C. in 5% CO2, immediately followed by the addition of 2 μl/well of ZIKV. Incubation time of compound-treated cells with ZIKV varied based on assay format. Experiments measuring virus induced caspase 3/7 activity required a 6 hour incubation of ZIKV in the presence compounds at 37° C. in 5% CO2. Following this incubation, 3 μl/well of caspase 3/7 reagent mixture was added to assay plates, incubated for 30 minute at room temperature, and the resultant luminescence signal was measured using a ViewLux plate reader (Perkin Elmer). Experiments measuring the virus induced cell death required a 72 hour incubation of ZIKV in the presence of compounds at 37° C. in 5% CO2. Following this incubation, 3 μl/well of ATP content detection reagent was added to assay plates, incubated for 30 minute at room temperature, and the resultant luminescence signal was measured in a ViewLux plate reader.

In assay [2] the test system is ZIKV-induced cell death in human astrocytes. Description: ATP cell viability assay for ZIKV-induced cell death, human astrocytes. The format is cell-based. As to conditions: ZIKV-infected human astrocytes.
The test system of assay [3] is ZIKV-induced caspase 3/7 activity in SNB-19 cells. The assay is described as follows: Caspase 3/7 activity assay, ZIKV-infected SNB-19 cells. The format is cell-based. An outline of the steps: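 Human NPCs, SNB-19 cells or astrocytes seeded 16 h, compound added 30 min before ZIKV, then 6 h infection at 37 °C. Caspase-Glo 3/7 luminescence after 30 min at room temperature, normalized to uninfected cells (0%) and ZIKV-infected cells (100%).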

[4] abbreviates: Homo sapiens, ZIKV-infected SNB-19 cells, read-out: Caspase 3 (IC50, uM) SNB-19.
Where [5] appears, read: Homo sapiens, ZIKV-infected SNB-19 cells, read-out: Caspase 3 (efficacy, %) SNB-19.
[6] abbreviates: ZIKV-infected SNB-19 cells, read-out: Caspase 3 (IC50, uM) SNB-19.

As a reminder, the IC50 is the point on the concentration scale where inhibition reaches its midpoint. As to `O=S(=O)(O)c1ccc2[nH]c(-c3ccccc3)nc2c1` [Ensulizole], the “Cell viability (efficacy, %) NPCs” value in assay [1] is on record as 0.0%. In addition, the “Cell viability (efficacy, %) Astrocyte” value in assay [2] is 0.0%. Further, the concentration for half-maximal inhibition (IC50) in assay [3] (Homo sapiens, SNB-19, read-out: Caspase 3 (IC50, uM) SNB-19) was found to be 1.84 µM. The Emax in assay [3] (Homo sapiens, SNB-19, read-out: Caspase 3 (efficacy, %) SNB-19) stood at 73.3%.

With `Nc1nc2ccc([N+](=O)[O-])cc2s1` [2-Amino-6-nitrobenzothiazole], the “Cell viability (efficacy, %) NPCs” value in assay [1] amounted to 0.0%. Also, in assay [2], the “Cell viability (efficacy, %) Astrocyte” value is reported as 0.0%. Also, in assay [3] (setting [4]), the IC50 was determined as 53.1 µM. The Emax in assay [3] (setting [5]) is 46.1%.

Take `O=C(OCc1ccccc1)c1ccc(O)cc1` [Benzylparaben]: the “Cell viability (efficacy, %) NPCs” value in assay [1] is recorded as 0.0%. The “Cell viability (efficacy, %) Astrocyte” value in assay [2] was 0.0%. In addition, the 50% inhibitory concentration (IC50) in assay [3] (setting [4]) is 19.5 µM. In addition, the Emax in assay [3] (setting [5]) was determined as 91.8%.

On to `c1ccc2[nH]c(-c3cscn3)nc2c1` [Thiabendazole], for which, in assay [1], the “Cell viability (efficacy, %) NPCs” value is listed as 0.0%. The “Cell viability (efficacy, %) Astrocyte” value in assay [2] is recorded as 0.0%. Besides, in assay [3] (setting [4]), the IC50 turned out to be 14.6 µM. In assay [3] (setting [5]), the Emax is 89.4%.

`O=C(O)c1ccccc1NCCc1ccccc1` [Enfenamic acid]: the half-inhibitory concentration (IC50) in assay [1] (Homo sapiens, read-out: Cell viability (IC50, uM) NPCs) was determined as 7.74 µM. In addition, the “Cell viability (efficacy, %) NPCs” value in assay [1] is on record as 58.5%. Moreover, the “Cell viability (efficacy, %) Astrocyte” value in assay [2] is on record as 0.0%. Besides, the Emax in assay [3] (setting [5]) turned out to be 49.5%.

On to `CC(C(=O)O)c1ccc(C(=O)c2ccccc2)s1` (stereo not drawn) [Tiaprofenic acid], for which the “Cell viability (efficacy, %) NPCs” value in assay [1] was found to be 0.0%. The “Cell viability (efficacy, %) Astrocyte” value in assay [2] worked out at 0.0%. Also, the IC50 in assay [3] (setting [4]) is 10.3 µM. The Emax in assay [3] (setting [5]) is 96.2%.

As for `C/C1=C2/[N-][C@H]([C@H](CC(N)=O)[C@@]2(C)CCC(=O)NC[C@@H](C)OP(=O)([O-])O[C@H]2[C@@H](O)[C@@H](n3cnc4cc(C)c(C)cc43)O[C@@H]2CO)[C@]2(C)N=C(/C(C)=C3N=C(/C=C4N=C1[C@@H](CCC(N)=O)C\4(C)C)[C@@H](CCC(N)=O)[C@]\3(C)CC(N)=O)[C@@H](CCC(N)=O)[C@]2(C)CC(N)=O.[Co+3].[OH-]` [Hydroxocobalamin], the “Cell viability (efficacy, %) NPCs” value in assay [1] was found to be 0.0%. In addition, the “Cell viability (efficacy, %) Astrocyte” value in assay [2] turned out to be 0.0%. Moreover, the “Caspase 3 (efficacy, %) SNB-19” value in assay [3] (ZIKV-infected SNB-19 cells) is given as 85.7%. For the same molecule, in assay [3] (setting [6]), the IC50 stood at 1.46 µM.

For `O=C1c2ccccc2C(=O)c2c1ccc(O)c2O` [Alizarin], in assay [1], the “Cell viability (efficacy, %) NPCs” value is 0.0%. Also, the “Cell viability (efficacy, %) Astrocyte” value in assay [2] was 0.0%. Also, the IC50 in assay [3] (setting [4]) was found to be 21.8 µM. For the same molecule, in assay [3] (setting [5]), the Emax turned out to be 40.9%.

In the case of `CN1CCN(c2cc3c(nn2)Oc2ccccc2N3C)CC1` [Pipofezine], the “Cell viability (efficacy, %) NPCs” value in assay [1] was 0.0%. In addition, the “Cell viability (efficacy, %) Astrocyte” value in assay [2] is reported as 0.0%. Also, in assay [3] (setting [4]), the IC50 was found to be 15.1 µM. In addition, the Emax in assay [3] (setting [5]) came to 31.5%.

In the case of `O=C(O)c1cc([N+](=O)[O-])ccc1NCCCc1ccccc1` [5-Nitro-2-(3-phenylpropylamino)benzoic acid], the “Cell viability (efficacy, %) NPCs” value in assay [1] came out at 0.0%. For the same molecule, the “Cell viability (efficacy, %) Astrocyte” value in assay [2] worked out at 0.0%. For the same molecule, the 50% inhibitory concentration (IC50) in assay [3] (setting [4]) turned out to be 13 µM. The Emax in assay [3] (setting [5]) is 82.9%.

Consider `CN1CC(=O)NC1=NC(=O)Nc1cccc(Cl)c1` [Fenobam], for which the “Cell viability (efficacy, %) NPCs” value in assay [1] came out at 0.0%. The “Cell viability (efficacy, %) Astrocyte” value in assay [2] turned out to be 0.0%. For the same molecule, the “Caspase 3 (efficacy, %) SNB-19” value in assay [3] (ZIKV-infected SNB-19 cells) was 110%. Besides, in assay [3] (setting [6]), the IC50 is 7.31 µM.

In the case of `O=C1NC(=O)/C(=C/c2ccc(-c3ccc(F)cc3O)o2)S1` [AS-252424], the “Cell viability (efficacy, %) NPCs” value in assay [1] stood at 0.0%. Moreover, the “Cell viability (efficacy, %) Astrocyte” value in assay [2] is recorded as 0.0%. Besides, the “Caspase 3 (efficacy, %) SNB-19” value in assay [3] (ZIKV-infected SNB-19 cells) turned out to be 38.0%. Further, the half-inhibitory concentration (IC50) in assay [3] (setting [6]) amounted to 2.18 µM.
